Data reported in patent US20190070170A1, “METHOD OF S[…]-1” (Macau University of Science and Technology, priority 2017, published 2019).

Tests used:
[1] = system: collagen-induced arthritis; test: Collagen-II induced arthritis (CIA) in DBA/1 mice; type: in vivo; details: CIA DBA/1 mice; MTX 10 mg/kg/week p.o.
Protocol: Female DBA/1 mice (8-9 weeks old) were purchased from Shanghai SiLaike (SLAC) Laboratory Animal Company (Shanghai, China) and fed with a chow diet and water at room temperature. Equal volume of complete Freuend's adjuvant (CFA) and Bovine Type II Collagen (CII) were mixed and emulsified using a homogenizer (13,000 rpm) on ice. On day 0, DBA/1 mice were immunized by injecting 50 μl of CII in CFA in the tail, approximately 2 cm from the base of the tail. After injection, on day 18, mice with one or more than one paw inflamed were chosen and randomly divided into model group, SIN (100 mg/kg, i.p.) treatment group and MTX (10 mg/kg/week, p.o) treatment group, the mice without immunization were used as normal control. On day 21, these chosen mice were boosted through injecting the same volume of CII in IFA same as the day 0 immunization procedure. The incidence of joint swelling in each group was recorded every two days since drug treatment. Paw thickness (at the ankle joints of the hind paws) of each mouse was obtained by using vernier caliper to record the severity of paw swelling.
Arthritis score of each paw was evaluated every two days during experiment with the following criteria: • 0: no evidence of erythema and swelling; • 1: erythema and mild swelling confirmed to the tarsals or ankle joint; • 2: erythema and mild swelling extending from the ankle to the tarsal joints; • 3: erythema and moderate swelling extending from the ankle to metatarsal joints; and • 4: erythema and severe swelling encompass the ankle, foot and digits, or ankylosis of the limb.
The score of each paw was summed for a score of 0-16 for each mouse. Mice were then sacrificed and hind paws were removed and freshly frozen in liquid nitrogen and stored at −80° C. until used.

mPGES-1 = mPGES-1 protein expression in hind paws of CIA DBA/1 mice; type: in vivo; details: SIN 100 mg/kg i.p. or MTX 10 mg/kg/week p.o.
Protocol: Female DBA/1 mice (8-9 weeks old) were purchased from Shanghai SiLaike (SLAC) Laboratory Animal Company (Shanghai, China) and fed with a chow diet and water at room temperature. Equal volume of complete Freuend's adjuvant (CFA) and Bovine Type II Collagen (CII) were mixed and emulsified using a homogenizer (13,000 rpm) on ice. On day 0, DBA/1 mice were immunized by injecting 50 μl of CII in CFA in the tail, approximately 2 cm from the base of the tail. […] The incidence of joint swelling in each group was recorded every two days since drug treatment. […]
Frozen paws were pulverized in liquid nitrogen using a stainless steel mortar and pestle, then re-suspended in 8 volumes of ice-cold PBS from Invitrogen (San Diego, Calif., USA) with 2.6 mM DTT from Promega (Madison, Wis., USA) and 2×Complete Protease Inhibitor mixture from Roche (Mannheim, Germany), and homogenized on ice bath using a tissue homogenizer from T25 digital, IKA (Stanfen, Germany) at 10,000 rpm/min for 5 min. […] The protein concentrations were measured using a Bio-Rad protein assay kit (Hercules, Calif., USA). […]
Whole-cell and nuclear proteins were obtained using RIPA lysis buffer (CST, Boston, Mass., USA) and Nuclear and Cytoplasmic Extraction Reagents kit from Thermo Scientific (Asheville, N.C., USA), respectively. […] The levels of protein expression were measured using Odyssey v3.0 software from Li-COR (Lincoln, Nebr., USA).

[2] = previous studies (Evans 1994; Werner et al. 1992); cited from earlier work

## CN(Cc1cnc2nc(N)nc(N)c2n1)c1ccc(C(=O)N[C@@H](CCC(=O)O)C(=O)O)cc1 [MTX, methotrexate, reference compound]
[1]
  arthritis in CIA mice: no observable effects
mPGES-1
  mPGES-1 protein expression in inflamed hind paws: no observable effects

## C[C@@H]1C[C@H]2[C@@H]3CCC4=CC(=O)C=C[C@]4(C)[C@@]3(F)[C@@H](O)C[C@]2(C)[C@@]1(O)C(=O)CO [DEX, Dexamethasone]
[2]
  cardiac side effects: faster heart rates, transient absolute myocardial hypertrophy and increase in systemic blood pressure
